Results taken from patent publication US11690810B2, “Combination treatment of bacterial infection” (The Chinese University of Hong Kong, priority 2018, dated 2023).
Converted amounts (≈) assume the structure as drawn. Where two headings read alike, the source gives them in different places.

Columns and labels:
CA MRSA W46 = assay: MIC and checkerboard (FIC) assay
[1] = system: Human Mammary Epithelial Cell (HMEC); assay: XTT cytotoxicity testing; type: cell-based; conditions: 2-64 μg/ml, vs drug free control
Protocol: (§1) The plates were maintained in a 37° C. incubator.

[2] = system: adherence of MRSA strain JE-2 to HaCat keratinocytes; assay: Bacterial adherence to HaCaT keratinocytes; type: cell-based, Staphylococcus aureus
[3] = system: adherence of MRSA strain JE-2 to fibrinogen; assay: Fibrinogen-binding adherence assay (crystal violet); type: cell-based, Staphylococcus aureus; conditions: varying concentrations
[4] = system: panel of laboratory MRSA strains; assay: MIC and combination tests, panel of laboratory strains
[5] = system: cytokines production of human macrophages stimulated with PGN or SEB; type: cell-based
HA MRSA W240 = assay: MIC and checkerboard (FIC) assay
[6] = system: S. aureus SA-RN4220-pUL5054 (RN4220); assay: MIC and checkerboard (FIC) assay
[7] = system: Panton-Valentine leukocidin positive CA-MRSA strain ST30; type: in vivo, Balb/c mice; conditions: ST30; used alone at 60 and 120 mg/kg
HA MRSA W234 = assay: MIC and checkerboard (FIC) assay
[8] = system: S. aureus ATCC25923 (methicillin sensitive); conditions: ATCC 25293; ECG with Kur
CA MRSA W114 = assay: MIC and checkerboard (FIC) assay
[9] = system: S. aureus ATCC25923 (methicillin sensitive); assay: MIC and checkerboard (FIC) assay; conditions: Staphylococcus aureus
[10] = system: cytokines production of human PBMC stimulated with PGN or SEB; type: cell-based
[11] = system: S. aureus SA-APH3′ (APH3), resistant to kanamycin; assay: MIC and checkerboard (FIC) assay
clinical MRSA ST239 = assay: Mouse pneumonia model, ST239 (neutropenic mice); type: in vivo, Balb/c mice; conditions: ST239; 48 h; 1 also died in control
[12] = system: clinical fusidic acid resistant MRSA strain 82356; assay: MIC and checkerboard (FIC) assay; type: cell-based, Staphylococcus aureus; conditions: for FIC / MIC combine: 82356
[13] = system: NorA overexpressed S. aureus; conditions: ECG at 20 μg/ml; norfloxacin-resistant S. aureus overexpressing NorA (16); cited from earlier work
[14] = system: human peripheral blood mononuclear cells (PBMC); assay: XTT cytotoxicity testing; type: cell-based; conditions: 2-64 μg/ml, vs drug free control
Protocol: as §1
The cytotoxicity of kuraridin and its analogues were determined by the sodium 3′-[1-(phenylaminocarbonyl)-3,4-tetrazolium]-bis (4-methoxy-6-nitro) benzene sulfonic acid hydrate (XTT) assay.
Serial dilutions of the compounds ranging 2-64 μg/ml were incubated with PBMCs at 37° C. for 72 hrs.

HA MRSA W231 [15] = conditions: ECG+Kur+Van
[16] = system: internalization of MRSA strain JE-2 by HaCat keratinocytes; assay: Internalization of S. aureus by HaCaT keratinocytes; type: cell-based, Staphylococcus aureus
CA-MRSA strain ST30 = assay: MIC and checkerboard (FIC) assay; type: cell-based, Staphylococcus aureus
HA MRSA W231 [17] = assay: MIC and checkerboard (FIC) assay
[18] = system: bacterial aggregation of MRSA JE-2; assay: Aggregation assay of MRSA JE-2; type: cell-based, Staphylococcus aureus; conditions: JE-2; varying concentrations
Solubility = conditions: saline or isotonic
[19] = Staphylococcus aureus, MRSA, read-out: MIC alone
[20] = Staphylococcus aureus, read-out: MIC 99.9
[21] = Staphylococcus aureus, read-out: MIC alone

O=C(O[C@@H]1Cc2c(O)cc(O)cc2O[C@@H]1c1ccc(O)c(O)c1)c1cc(O)c(O)c(O)c1 [ECG, epicatechin gallate]
MIC (CA MRSA W46; [19]): 512 µg/mL
FIC (CA MRSA W46; W46, ECG with Kur): 0.015
MIC combine (CA MRSA W46; W46, ECG with Kur): 8 µg/mL
FIC (CA MRSA W46; W46, ECG+Kur+Van): 0.002
MIC combine (CA MRSA W46; W46, ECG+Kur+Van): 1 µg/mL
MIC alone (CA MRSA W46; W46, Table 5): 512 µg/mL
Cellular toxicity (XTT assay) [1]: not toxic
decrease in the adherence of the WT strain to HaCaT cells ([2]; 64 μg/ml of ECG): 1.4 fold
percentage of adherence of the bacteria to HaCaT cells ([2]; ECG 4 μg/ml): 73.0±4.1%
percentage of adherence of the bacteria to HaCaT cells ([2]; ECG 8 μg/ml): 75.4±11.0%
percentage of adherence of the bacteria to HaCaT cells ([2]; ECG 16 μg/ml): 76.4±7.0%
percentage of adherence of the bacteria to HaCaT cells ([2]; ECG 32 μg/ml): 58.8±8.5%
percentage of adherence of the bacteria to HaCaT cells ([2]; ECG 64 μg/ml): 52±6.5%
fibrinogen-binding adherence [3]: dose-dependent reduction of adherence
MIC90 ([4]; Staphylococcus aureus, MRSA): 4 to 16 µg/mL
concentration for 99.9% inhibition ([4]; panel of laboratory strains): > 512 µg/mL
IL-12 production [5]: could suppress only IL-12
MIC (HA MRSA W240; [19]): 512 µg/mL
FIC (HA MRSA W240; W240, ECG with Kur): 0.008
MIC combine (HA MRSA W240; W240, ECG with Kur): 4 µg/mL
FIC ([6]; RN4220, Kuraridin with ECG): 0.01
MIC combine ([6]; RN4220, Kuraridin with ECG): 8 µg/mL
MIC90 ([6]; Staphylococcus aureus): 8 µg/mL
MIC99 [6, 20]: > 512 µg/mL
MIC [6, 21]: 512 µg/mL
log CFU counts and survival rates [7]: could not reduce the log CFU counts or improve the survival rates
MIC (HA MRSA W234; [19]): 512 µg/mL
FIC (HA MRSA W234; W234, ECG with Kur): 0.002
MIC combine (HA MRSA W234; W234, ECG with Kur): 1 µg/mL
FIC [8]: 0.008
MIC combine [8]: 4 µg/mL
MIC (CA MRSA W114; [19]): 512 µg/mL
FIC (CA MRSA W114; W114, ECG with Kur): 0.002
MIC combine (CA MRSA W114; W114, ECG with Kur): 1 µg/mL
MIC ([9]; ATCC25293 / ATCC25923, read-out: MIC alone): 512 µg/mL
MIC90 ([9]; ATCC25923): 128 µg/mL
MIC99 ([9]; ATCC25923, read-out: MIC 99.9): > 512 µg/mL
IL-10 and IL-12 production [10]: mildly suppressed
TNF-α production [10]: no significant effects
FIC ([11]; APH3, Kuraridin with ECG): 0.0009
MIC combine ([11]; APH3, Kuraridin with ECG): 0.5 µg/mL
MIC90 ([11]; Staphylococcus aureus): 4 µg/mL
MIC99 [11, 20]: > 512 µg/mL
MIC [11, 21]: 512 µg/mL
mice died (clinical MRSA ST239): 1 mouse
FIC ([12]; ECG+Kur+Fus): 0.008
MIC combine ([12]; ECG+Kur+Fus): 0.25 µg/mL
FIC ([12]; ECG+Kur, no Fus): 0.016
MIC combine ([12]; ECG+Kur, no Fus): 8 µg/mL
MIC [12, 19]: 512 µg/mL
potentiation of the activity of norfloxacin [13]: four-fold potentiation
Cellular toxicity (XTT assay) [14]: not toxic
FIC (HA MRSA W231 [15]): 0.0004
MIC combine (HA MRSA W231 [15]): 0.25 µg/mL
percentage of internalized bacteria by HaCaT cells ([16]; ECG 4 μg/ml): 62.2±2.7%
percentage of internalized bacteria by HaCaT cells ([16]; ECG 8 μg/ml): 62.8±10.5%
percentage of internalized bacteria by HaCaT cells ([16]; ECG 16 μg/ml): 53.7±6.3%
percentage of internalized bacteria by HaCaT cells ([16]; ECG 32 μg/ml): 42.2±8.9%
percentage of internalized bacteria by HaCaT cells ([16]; ECG 64 μg/ml): 34.7±4.5%
FIC (CA-MRSA strain ST30; ST30, ECG with Kur): 0.0004
MIC combine (CA-MRSA strain ST30; ST30, ECG with Kur): 0.25 µg/mL
FIC (CA-MRSA strain ST30; ST30, ECG+Kur+Van): 0.0004
MIC combine (CA-MRSA strain ST30; ST30, ECG+Kur+Van): 0.25 µg/mL
MIC alone (CA-MRSA strain ST30; ST30, Table 5): 512 µg/mL
MIC (CA-MRSA strain ST30; [19]): 512 µg/mL
MIC (HA MRSA W231 [17]; [19]): 512 µg/mL
MIC alone (HA MRSA W231 [17]; W231 (gentamicin resistant)): 512 µg/mL
FIC (HA MRSA W231 [17]; W231, ECG with Kur): 0.016
MIC combine (HA MRSA W231 [17]; W231, ECG with Kur): 8 µg/mL
FIC (HA MRSA W231 [17]; W231, ECG+Kur+Gen): 0.0004
MIC combine (HA MRSA W231 [17]; W231, ECG+Kur+Gen): 0.25 µg/mL
FIC (HA MRSA W231 [17]; W231, ECG+Kur, no Gen): 0.008
MIC combine (HA MRSA W231 [17]; W231, ECG+Kur, no Gen): 4 µg/mL
MIC alone (HA MRSA W231 [17]; W231, Table 5): 512 µg/mL
bacterial aggregation [18]: No significant reduction
solubility (Solubility): 20 mg/mL (≈ 45.2 mM)
